Data: ChEMBL document CHEMBL4420063, “Pgam1 inhibitors and methods related thereto” (2014)
pIC50: −log10 of the molar value.

What was measured:
KG-1a [1] = experiment: Inhibition of cell proliferation in human KG1a cells assessed as reduction in cell number by trypan blue exclusion based assay; assay type: functional
KG-1a [2] = experiment: Inhibition of cell proliferation in human KG1a cells assessed as reduction in cell number by MTT assay; assay type: functional, cell-based
NHDF = experiment: Antiproliferative activity against NHDF cells assessed as reduction in cell number up to 40 uM by trypan blue exclusion based assay; conditions: human
HFF = experiment: Antiproliferative activity against HFF cells assessed as reduction in cell number up to 40 uM by trypan blue exclusion based assay; conditions: human
HaCaT = experiment: Antiproliferative activity against human HaCaT cells assessed as reduction in cell number up to 40 uM by trypan blue exclusion based assay
[3] = Antiproliferative activity against human PIG1 cells assessed as reduction in cell number up to 40 uM by trypan blue exclusion based assay
[4] = Toxicity in ip dosed athymic nude-Foxn1nu mouse dosed for 4 weeks assessed as well-tolerated dose level; assay type: organism-based; conditions: in vivo, 672 h
[5] = Toxicity in athymic nude-Foxn1nu mouse assessed as effect on body weight at 100 mg/kg/day, ip for 7 days; assay type: organism-based; conditions: in vivo, 168 h
[6] = Toxicity in athymic nude-Foxn1nu mouse assessed as effect on complete blood counts at 100 mg/kg/day, ip for 7 days; assay type: organism-based; conditions: in vivo, 168 h
[7] = Toxicity in athymic nude-Foxn1nu mouse assessed as effect on hematopoietic parameters at 100 mg/kg/day, ip for 7 days; assay type: organism-based; conditions: in vivo, 168 h
[8] = Toxicity in athymic nude-Foxn1nu mouse assessed as effect on kidney at 100 mg/kg/day, ip for 7 days by H and E staining based histo-pathological analysis; assay type: organism-based; conditions: in vivo, 168 h
PBMC = experiment: Antiproliferative activity against PBMC from healthy human assessed as reduction in cell viability at 10 to 20 uM by MTT assay; assay type: cell-based
[9] = Antiproliferative activity against CD34-positive blood stem/progenitor cells from healthy human assessed as reduction in cell viability at 20 uM by trypan blue exclusion based assay
NCI-H1299 = experiment: Inhibition of cell proliferation in human NCI-H1299 cells assessed as reduction in cell number by MTT assay; assay type: functional, cell-based
[10] = Inhibition of cell proliferation in human Tu212LN cells assessed as reduction in cell number by MTT assay; assay type: functional, cell-based
[11] = Toxicity in athymic nude-Foxn1nu mouse assessed as effect on lung at 100 mg/kg/day, ip for 7 days by H and E staining based histo-pathological analysis; assay type: organism-based; conditions: in vivo, 168 h
[12] = Toxicity in athymic nude-Foxn1nu mouse assessed as effect on liver at 100 mg/kg/day, ip for 7 days by H and E staining based histo-pathological analysis; assay type: organism-based; conditions: in vivo, 168 h
[13] = Toxicity in athymic nude-Foxn1nu mouse assessed as effect on spleen at 100 mg/kg/day, ip for 7 days by H and E staining based histo-pathological analysis; assay type: organism-based; conditions: in vivo, 168 h

Compound: O=C1c2ccccc2C(=O)c2c1ccc(O)c2O [ATHRAQUINONES A]
- pIC50 (KG-1a [1]): 4.23
- pIC50 (KG-1a [2]): 4.22

Compound: O=C1c2ccccc2C(=O)c2c1cc(S(=O)(=O)Nc1ccc(C(F)(F)F)cc1)c(O)c2O
- Activity (NHDF): Non-Toxic
- Activity (HFF): Non-Toxic
- Activity (HaCaT): Non-Toxic
- Activity [3]: Non-Toxic
- Activity [4]: 100 mg/kg/day
- Activity [5]: Non-Toxic
- Activity [6]: Non-Toxic
- Activity [7]: Non-Toxic
- Activity [8]: Non-Toxic
- Activity (PBMC): Non-Toxic
- Activity [9]: Non-Toxic
- pIC50 (NCI-H1299): 4.59
- pIC50 (KG-1a [2]): 4.77
- pIC50 [10]: 4.58
- Activity [11]: Non-Toxic
- Activity [12]: Non-Toxic
- Activity [13]: Non-Toxic
